# Results as given in patent US20030105118A1, “Tricyclic quinazolinediones” (priority 2002, published 2003).
# Counter-ions that a name gives are not always drawn.
# Molecular target: T1, recombinant human PARP (Homo sapiens, UniProt P09874)
# T1 construct: purchased Trevigen, Inc. (USA)
# Test: PARP inhibitory activity ([3H]NAD incorporation, filter assay)
# Format: biochemical
# Conditions: recombinant human PARP 2 units/ml, 0.3 μM [3H]NAD, DNA 3 μg/ml, room temperature 1.5 hour, duplicate; read-out: IC50 (inhibitory rate of PARP activity)
# Description: PARP (recombinant human PARP, 660 units/mg) (Trevigen, Inc. (USA))
# A buffer (50 mM Tris-HCl (pH8.0)/25 mM MgCl2 aqueous solution) was used in preparation of each solution.
# To a 96-well round bottom plate made of polypropylene were added successively a test compound solution (20 μl/well), 1 μM [^3H]NAD (specific activity: 7 kBq/ml) containing 10 μg/ml of DNA (30 μl/well), and 4 units/ml (6 μg/ml) PARP solution (50 μl/well), and the plate was placed under room temperature for 1.5 hour for the reaction (final concentrations of each reagent in the reaction solution: DNA: 3 μg/ml; [^3H]NAD: 0.3 μM/specific activity of 2.1 kBq/ml; PARP: 2 units/ml (3 μg/ml)). The reaction was terminated by addition of a 24 mM benzamide (9 μl/well, 2 mM after the addition), and the PARP in the reaction solution was recovered by using a cell harvester (HARVESTER 96 (registered trade name), TOMTEC Inc. (USA)) on the glass fiber filter for plate. Said glass fiber filter had been soaked with 80% ethanol just prior to the recovary of PARP, and after the recovary of PARP, each well of the plate was washed four times with 80% ethanol, and the washings were also passed through the glass fiber filter. Said glass fiber filter was dried by heating with a microwave oven for 3 to 4 minutes, and put into a sample bag being sandwiched between 2 solid scintillant sheets, and said sample bag was sealed by heat sealing. The bag was put on a heater at about 50° C. to melt the scintillant with heat in order to penetrate it into the filter. The plate was cooled to room temperature, and the [^3H] count of poly(ADP-ribose) (cpm) bound to PARP was measured with a counter for plate (1450 MicroBeta (registered trade name) TriLux, PerkinElmer, Inc. (USA)) for 10 minutes per plate.
# The inhibitory rate of PARP activity was calculated by the following equation. [formula]
# The inhibitory rate of each test compound was measured in duplicate, and an IC50 value thereof was calculated therefrom.
# T1 sequence (P09874 whole entry): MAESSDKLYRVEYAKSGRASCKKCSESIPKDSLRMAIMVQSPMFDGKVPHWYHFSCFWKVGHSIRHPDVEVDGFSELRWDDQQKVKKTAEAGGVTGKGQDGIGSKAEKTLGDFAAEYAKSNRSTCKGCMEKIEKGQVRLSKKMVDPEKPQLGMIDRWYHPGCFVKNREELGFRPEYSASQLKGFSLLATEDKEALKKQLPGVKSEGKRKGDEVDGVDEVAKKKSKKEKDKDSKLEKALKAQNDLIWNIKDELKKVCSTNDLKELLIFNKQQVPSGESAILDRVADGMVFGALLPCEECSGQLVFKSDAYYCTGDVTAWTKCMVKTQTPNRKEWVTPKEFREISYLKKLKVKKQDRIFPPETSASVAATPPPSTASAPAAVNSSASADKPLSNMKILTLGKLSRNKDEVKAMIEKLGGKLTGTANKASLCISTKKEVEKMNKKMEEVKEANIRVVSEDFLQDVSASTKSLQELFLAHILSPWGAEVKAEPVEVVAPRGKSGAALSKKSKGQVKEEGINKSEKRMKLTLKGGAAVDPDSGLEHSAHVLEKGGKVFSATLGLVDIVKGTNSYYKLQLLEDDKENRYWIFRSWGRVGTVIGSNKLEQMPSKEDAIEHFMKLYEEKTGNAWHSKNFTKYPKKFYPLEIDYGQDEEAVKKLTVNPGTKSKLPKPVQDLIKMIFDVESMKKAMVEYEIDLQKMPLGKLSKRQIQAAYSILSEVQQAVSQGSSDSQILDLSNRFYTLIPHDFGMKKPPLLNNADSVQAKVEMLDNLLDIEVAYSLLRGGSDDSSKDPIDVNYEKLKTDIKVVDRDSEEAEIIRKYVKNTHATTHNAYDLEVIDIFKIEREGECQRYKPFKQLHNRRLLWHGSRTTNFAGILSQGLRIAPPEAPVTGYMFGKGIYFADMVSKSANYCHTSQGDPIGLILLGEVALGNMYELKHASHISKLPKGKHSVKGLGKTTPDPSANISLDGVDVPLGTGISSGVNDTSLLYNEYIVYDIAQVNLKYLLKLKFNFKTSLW
row,IC50,Structure (SMILES)
1,140 nM,"O=c1[nH]c(=O)n2c3c(cccc13)CC2 [Example 1, 5,6-dihydro-1H-pyrrolo[3,2,1-ij]quinazoline-1,3(2H)-dione]"
2,52 nM,"O=c1[nH]c(=O)n2c3c(cccc13)CCC2 [Example 2, 6,7-Dihydro-1H,5H-pyrido[3,2,1-ij]quinazoline-1,3(2H)-dione]"
3,< 5 nM,"CN(C)c1ccc(C(=O)NCC2Cc3cccc4c(=O)[nH]c(=O)n(c34)C2)cc1 (centres unmarked) [Example 29, 4-(Dimethylamino)-N-[(1,3-dioxo-2,3,6,7-tetrahydro-1H,5H-pyrido[3,2,1-ij]quinazolin-6-yl)methyl]benzamide]"
4,7.4 nM,"O=C(NCC1Cc2cccc3c(=O)[nH]c(=O)n(c23)C1)C1CCNCC1 (centres unmarked) [Example 39, N-[(1,3-Dioxo-2,3,6,7-tetrahydro-1H,5H-pyrido[3,2,1-ij]quinazolin-6-yl)methyl]-4-piperidinecarboxamide hydrochloride]"

# Test system: not given
# Test: not given
# Conditions: not given
row,melting point,Structure (SMILES)
1,> 300 °C,Cl.NCC1CCc2cccc3c(=O)[nH]c(=O)n1c23 (centres unmarked)
2,> 300 °C,Cl.NCC1Cc2cccc3c(=O)[nH]c(=O)n1c23 (centres unmarked)
3,190 °C (dec.),Cl.NCC1CCn2c(=O)[nH]c(=O)c3cccc1c32 (centres unmarked)
4,290 to 296 °C (dec.),Cl.NCCC(=O)NCC1Cc2cccc3c(=O)[nH]c(=O)n1c23 (centres unmarked)
5,> 300 °C,Cl.NCc1ccc(C(=O)NCC2Cc3cccc4c(=O)[nH]c(=O)n(c34)C2)cc1 (centres unmarked)
6,> 300 °C,Cl.NC1Cc2cccc3c(=O)[nH]c(=O)n(c23)C1 (centres unmarked)
7,314 to 315 °C,"O=c1[nH]c(=O)n2c3c(cccc13)CC2 [Example 1, 5,6-dihydro-1H-pyrrolo[3,2,1-ij]quinazoline-1,3(2H)-dione]"
8,282 to 284 °C,"O=c1[nH]c(=O)n2c3c(cccc13)CCC2 [Example 2, 6,7-Dihydro-1H,5H-pyrido[3,2,1-ij]quinazoline-1,3(2H)-dione]"
9,205 to 207 °C,"O=c1[nH]c(=O)n2c3c(cccc13)CCC2CO (centres unmarked) [Example 3, 5-(hydroxymethyl)-6,7-dihydro-1H,5H-pyrido[3,2,1-ij]-quinazoline-1,3(2H)-dione]"
10,238 to 240 °C,"O=c1[nH]c(=O)n2c3c(cccc13)CC2CO (centres unmarked) [Example 4, 5-(Hydroxymethyl)-5,6-dihydro-1H-pyrrolo[3,2,1-ij]quinazoline-1,3(2H)-dione]"
11,252 to 254 °C,"O=c1[nH]c(=O)n2c3c(cccc13)CC(CO)C2 (centres unmarked) [Example 5, 6-(Hydroxymethyl)-6,7-dihydro-1H,5H-pyrido[3,2,1-ij]quinazoline-1,3(2H)-dione]"
12,226 °C (dec.),"O=c1[nH]c(=O)n2c3c(cccc13)C(CO)CC2 (centres unmarked) [Example 6, 7-(Hydroxymethyl)-6,7-dihydro-1H,5H-pyrido[3,2,1-ij]quinazoline-1,3(2H)-dione]"
13,267 to 270 °C (dec.),"O=c1[nH]c(=O)n2c3c(cccc13)CC(CBr)C2 (centres unmarked) [Example 9, 6-(Bromomethyl)-6,7-dihydro-1H,5H-pyrido[3,2,1-ij]quinazoline-1,3(2H)-dione]"
14,225 °C (dec.),"O=c1[nH]c(=O)n2c3c(cccc13)C(CBr)CC2 (centres unmarked) [Example 10, 7-(Bromomethyl)-6,7-dihydro-1H,5H-pyrido[3,2,1-ij]quinazoline-1,3(2H)-dione]"
15,282 to 285 °C,"O=C(NCC1Cc2cccc3c(=O)[nH]c(=O)n(c23)C1)c1ccncc1 (centres unmarked) [Example 23, N-[(1,3-Dioxo-2,3,6,7-tetrahydro-1H,5H-pyrido[3,2,1-ij]quinazolin-6-yl)methyl]isonicotinamide]"
16,247 to 250 °C,"O=C(NCC1Cc2cccc3c(=O)[nH]c(=O)n(c23)C1)c1ccccn1 (centres unmarked) [Example 24, N-[(1,3-Dioxo-2,3,6,7-tetrahydro-1H,5H-pyrido[3,2,1-ij]quinazolin-6-yl)methyl]-2-pyridinecarboxamide]"
17,275 °C (dec.),"O=C(Cc1ccccc1)NCC1Cc2cccc3c(=O)[nH]c(=O)n(c23)C1 (centres unmarked) [Example 26, N-[(1,3-Dioxo-2,3,6,7-tetrahydro-1H,5H-pyrido[3,2,1-ij]quinazolin-6-yl)methyl]-2-phenylacetamide]"
18,220 to 236 °C,"CN(C)c1ccccc1C(=O)NCC1Cc2cccc3c(=O)[nH]c(=O)n(c23)C1 (centres unmarked) [Example 27, 2-(Dimethylamino)-N-[(1,3-dioxo-2,3,6,7-tetrahydro-1H,5H-pyrido[3,2,1-ij]quinazolin-6-yl)methyl]benzamide]"
19,158 to 170 °C,"CN(C)c1cccc(C(=O)NCC2Cc3cccc4c(=O)[nH]c(=O)n(c34)C2)c1 (centres unmarked) [Example 28, 3-(Dimethylamino)-N-[(1,3-dioxo-2,3,6,7-tetrahydro-1H,5H-pyrido[3,2,1-ij]quinazolin-6-yl)methyl]benzamide]"
20,268 to 278 °C (dec.),"CN(C)c1ccc(C(=O)NCC2Cc3cccc4c(=O)[nH]c(=O)n(c34)C2)cc1 (centres unmarked) [Example 29, 4-(Dimethylamino)-N-[(1,3-dioxo-2,3,6,7-tetrahydro-1H,5H-pyrido[3,2,1-ij]quinazolin-6-yl)methyl]benzamide]"
21,280 to 281 °C (dec.),"O=C(NCC1Cc2cccc3c(=O)[nH]c(=O)n(c23)C1)C1CCCCC1 (centres unmarked) [Example 30, N-[(1,3-Dioxo-2,3,6,7-tetrahydro-1H,5H-pyrido[3,2,1-ij]quinazolin-6-yl)methyl]cyclohexanecarboxamide]"
22,255 to 257 °C (dec.),"O=C(NCC1Cc2cccc3c(=O)[nH]c(=O)n(c23)C1)c1cnccn1 (centres unmarked) [Example 31, N-[(1,3-Dioxo-2,3,6,7-tetrahydro-1H,5H-pyrido[3,2,1-ij]quinazolin-6-yl)methyl]-2-pyrazinecarboxamide]"
23,279 to 281 °C (dec.),"O=C(NCC1Cc2cccc3c(=O)[nH]c(=O)n(c23)C1)c1ccnnc1 (centres unmarked) [Example 32, N-[(1,3-Dioxo-2,3,6,7-tetrahydro-1H,5H-pyrido[3,2,1-ij]quinazolin-6-yl)methyl]-4-pyridazinecarboxamide]"
24,240 to 243 °C (dec.),"CN(C)Cc1ccc(C(=O)NCC2Cc3cccc4c(=O)[nH]c(=O)n(c34)C2)cc1 (centres unmarked) [Example 33, 4-[(Dimethylamino)methyl]-N-[(1,3-dioxo-2,3,6,7-tetrahydro-1H,5H-pyrido[3,2,1-ij]quinazolin-6-yl)methyl]benzamide]"
25,246 to 250 °C (dec.),"CN1CCC(C(=O)NCC2Cc3cccc4c(=O)[nH]c(=O)n(c34)C2)CC1 (centres unmarked) [Example 34, N-[(1,3-Dioxo-2,3,6,7-tetrahydro-1H,5H-pyrido[3,2,1-ij]quinazolin-6-yl)methyl]-1-methyl-4-piperidinecarboxamide]"
26,240 to 242 °C (dec.),"O=C(NCC1Cc2cccc3c(=O)[nH]c(=O)n(c23)C1)C1CCN(Cc2ccccc2)CC1 (centres unmarked) [Example 35, 1-Benzyl-N-[(1,3-dioxo-2,3,6,7-tetrahydro-1H,5H-pyrido[3,2,1-ij]-quinazolin-6-yl)methyl]-4-piperidinecarboxamide]"
27,260 to 266 °C (dec.),"O=c1[nH]c(=O)n2c3c(cccc13)C(O)C2 (centres unmarked) [Example 46, 6-hydroxy-5,6-dihydro-1H-pyrrolo[3,2,1-ij]quinazoline-1,3(2H)-dione]"
28,192 to 196 °C,"O=c1[nH]c(=O)n2c3c(cccc13)CCCC2 [Example 48, 5,6,7,8-Tetrahydro-1H-azepino[3,2,1-ij]quinazoline-1,3(2H)-dione]"
